# From patent US12448605B2, “Encapsulation and cardiac differentiation of hiPSCs in 3D PEG-fibrinogen hydrogels” (Auburn University, priority 2013, dated 2025)
# Tested on: spontaneously contracting 3D cultured CMs
# Assay: Calcium transient and spontaneous beating rate of dissociated, un-paced CMs in response to isoproterenol
# Format: cell-based, human
# Description: To immobilize cells for proper calcium transient acquisition, glass coverslips (21 mm, No. 1, Fisher Scientific) were coated with PDMS using a WS-400-6NPP spin coater (Laurell Technologies Corporation). Briefly, SLYGARD 184 silicone elastomer curing agent was mixed with SLYGARD 184 elastomer base (Dow Corning Corporation) at a ratio of 1:10, applied on the glass coverslips and evenly spin coated to obtain PDMS coated coverslips. These were dried at 60° C. for several hours, sterilized using 70% ethanol, and further dried under sterile conditions for at least 24 h. In order for successful single CM attachment, 1× fibronectin in ice cold ultrapure water was applied on PDMS coated coverslips and incubated for at least one hour at room temperature.
# Day 14 2D monolayers and 3D tissues were dissociated using 0.25% trypsin (EDTA) at 37° C. for 5 and 8 min, respectively. Cells were singularized by pipetting, added to RPMI20 media49, and centrifuged for 5 min at 200 g. Singularized cells were resuspended in RPMI20+5 μM ROCK inhibitor and transferred onto fibronectin coated PDMS glass coverslips. Cells were incubated for 48 h to ensure uniform cell attachment. Media was then switched to RPMI/B27 and cells maintained for 3 to 5 days. CM calcium transient recordings were obtained using an IonOptix Myocyte Calcium and Contractility Recording System. Samples were incubated in 5 μM Fura-2AM dye (Molecular Probes) in 37° C. warm Tyrode's solution (1.8 mM CaCl2, 5 mM glucose, 5 mM HEPES, 1 mM MgCl2, 5.4 mM KCl, 135 mM NaCl, and 0.33 mM NaH2PO4, pH 7.4) for 30 mM CMs were paced at frequencies from 0.5 to 2.0 Hz (0.5 Hz increments) and stimulated at 30 V. Calcium transient duration at 50% and 80% time to baseline was recorded. In addition to responses to outside electrical stimuli, response to 0.5 μM isoproterenol was studied on un-paced CMs.
# [1] = 0.5 μM isoproterenol, spontaneously contracting 3D cultured CMs, vs pre-isoproterenol, n=3, P<0.05
structure (smiles),measurement,setting,value
CC(C)NCC(O)c1ccc(O)c(O)c1 (stereo not shown) [isoproterenol],calcium transient time to baseline 50%,[1],significantly shortened
same,calcium transient time to baseline 80%,[1],significantly shortened
same,spontaneous beating rate (post isoproterenol),"0.5 μM isoproterenol, un-paced day 14 3D cultured CMs, pre-isoproterenol 33 beats per min",60 beats per min
same,spontaneous beating rate (change in words),"spontaneously contracting 3D cultured CMs, response to isoproterenol",increased
